Assays:
[1] = test system: withdrawal reflex of the rat tail (tail flick); assay: Low-intensity tail flick test (rat); assay type: in vivo; details: dose 10.00 mg/kg (in brackets in the cell)
Method: Method II. Low-Intensity Tail Flick Test (Rat)
In the low-intensity tail flick test, the determination of the antinociceptive effect of the compounds according to the invention towards an acute noxious thermal stimulus is carried out by measuring the withdrawal reflex of the rat tail (tail flick) in response to a radiant heat beam (analgesia meter; model 2011 of the company Rhema Labortechnik, Hofheim, Germany) according to the method described by D'Amour and Smith (J. Pharm. Exp. Ther. 72, 74 79 (1941). To this end, the rats were placed in a plexiglas restrainer, and a low-intensity radiant heat beam (48° C.) was focused onto the dorsal surface of the tail root. The stimulus intensity was adjusted to result in a mean pre-drug control withdrawal latency of about 7 s, thus also allowing a supraspinal modulation of the spinally mediated acute nociceptive reflex. […] Before administration of a compound according to the invention, the animals were pre-tested twice in the course of five minutes and the mean of these measurements was calculated as the pre-test mean. The antinociceptive effect was determined at 20, 40 and 60 min after peroral compound administration. The antinociceptive effect was calculated based on the increase in the tail withdrawal latency according to the following formula and is expressed as percentage of the maximum possible effect (MPE [%]): MPE=[(T1−T0)/(T2−T0)]*100 […]

KCNQ2/3 channels = biological target: T1, KCNQ2/3 channels (Homo sapiens, UniProt O43525+O43526); assay: Fluorescence assay using a voltage sensitive dye (fluorimetry); assay type: cell-based; details: CHO-K1 cells expressing KCNQ2/3 channels; for Emax: agonistic efficacy relative to retigabine = 100%
T1 construct: expressed in transfected cells; host or cells: CHO-K1 cells, kept under selection antibiotics
Method: Method I. Fluorescence Assay Using a Voltage Sensitive Dye
Human CHO-K1 cells expressing KCNQ2/3 channels are cultivated adherently at 37° C., 5% CO2 and 95% humidity in cell culture bottles (e.g. 80 cm^2 TC flasks, Nunc) with DMEM-high glucose (Sigma Aldrich, D7777) including 10% FCS (PAN Biotech, e.g. 3302-P270521) or alternatively MEM Alpha Medium (1×, liquid, Invitrogen, #22571), 10% fetal calf serum (FCS) (Invitrogen, #10270-106, heat-inactivated) and the necessary selection antibiotics.
Before being sown out for the measurements, the cells are washed with a 1× DPBS buffer without Ca^2+/Mg^2+ (e.g. Invitrogen, #14190-094) and detached from the bottom of the culture vessel by means of Accutase (PAA Laboratories, #L11-007) (incubation with Accutase for 15 min at 37° C.). The cell count then present is determined using a CASY™ cell counter (TCC model, Schärfe System) in order subsequently to apply, depending on the density optimization for the individual cell line, 20,000-30,000 cells/well/100 μl of the described nutrient medium to 96-well measuring plates of the Corning™ CellBIND™ type (Flat Clear Bottom Black Polystyrene Microplates, #3340). Incubation is then carried out for one hour at room temperature, without gassing or adjusting the humidity, followed by incubation for 24 hours at 37° C., 5% CO2 and 95% humidity.
The voltage-sensitive fluorescent dye from the Membrane Potential Assay Kit (Red™ Bulk format part R8123 for FLIPR, MDS Analytical Technologies™) is prepared by dissolving the contents of a vessel Membrane Potential Assay Kit Red Component A in 200 ml of extracellular buffer (ES buffer, 120 mM NaCl, 1 mM KCl, 10 mM HEPES, 2 mM CaCl2, 2 mM MgCl2, 10 mM glucose; pH 7.4). After removal of the nutrient medium, the cells are washed with 200 μl of ES buffer, then covered with a layer of 100 μl of the dye solution prepared above and incubated for 45 min at room temperature with the exclusion of light.
The fluorescence measurements are carried out with a BMG Labtech FLUOstar™, BMG Labtech NOVOstar™ or BMG Labtech POLARstar™ instrument (525 nm excitation, 560 nm emission, Bottom Read mode). After incubation of the dye, 50 μl of the test substances in the desired concentrations, or 50 μl of ES buffer for control purposes, are introduced into separate cavities of the measuring plate and incubated for 30 min at room temperature while being shielded from light. The fluorescence intensity of the dye is then measured for 5 min and the fluorescence value F1 of each well is thus determined at a given, constant time. 15 μl of a […] KCl solution ([…]) are then added to each well. The change in fluorescence is subsequently measured until all the relevant measured values have been obtained (mainly 5-30 min). At a given time after KCl application, a fluorescence value F2 is determined, in this case at the time of the fluorescence peak.
For calculation, the fluorescence intensity F2 is compared with the fluorescence intensity F1, and the agonistic activity of the target compound on the potassium channel is determined therefrom. F2 and F1 are calculated as follows: […]
A substance has an agonistic activity on the potassium channel when
[formula] is to be observed as the dosage of the target compound increases. Calculations of EC50 and IC50 values are carried out with the aid of ‘Prism v4.0’ software (GraphPad Software™).

Row | EC50 (KCNQ2/3 channels) [nM] | Emax (KCNQ2/3 channels) [%] | Compound | Low intensity tail flick, rat, peroral, % MPE (dose [mg/kg]) [1]
1 | 124 | 134 | CCCn1c(C(=O)NCc2cccc(F)c2)c(C)c2ccc(C(F)(F)F)cc2c1=O [Example 2, N-(3-fluorobenzyl)-4-methyl-1-oxo-2-propyl-7-(trifluoromethyl)-1,2-dihydroisoquinoline-3-carboxamide] | 10 (10.00) % MPE
2 | 196 | 103 | CCn1c(C(=O)NCc2cccc(F)c2)c(C)c2ccc(C(F)(F)F)cc2c1=O [Example 3, 2-ethyl-N-(3-fluorobenzyl)-4-methyl-1-oxo-7-(trifluoromethyl)-1,2-dihydroisoquinoline-3-carboxamide] | 
3 | 381 | 144 | Cc1c(C(=O)NCc2cccc(F)c2)n(C(C)C)c(=O)c2cc(C(F)(F)F)ccc12 [Example 4, N-(3-fluorobenzyl)-2-isopropyl-4-methyl-1-oxo-7-(trifluoromethyl)-1,2-dihydroisoquinoline-3-carboxamide] | 
4 | 1950 | 164 | Cc1c(C(=O)NCc2cccc(F)c2)n(C)c(=O)c2cc(C(F)(F)F)ccc12 [Example 1, N-(3-fluorobenzyl)-2,4-dimethyl-1-oxo-7-(trifluoromethyl)-1,2-dihydroisoquinoline-3-carboxamide] | 
5 | 283 | 87 | COCCn1c(C(=O)NCc2cccc(F)c2)c(C)c2ccc(C(F)(F)F)cc2c1=O [Example 5, N-(3-fluorobenzyl)-2-(2-methoxyethyl)-4-methyl-1-oxo-7-(trifluoromethyl)-1,2-dihydroisoquinoline-3-carboxamide] | 
